Drawing on US9707233B2, “Heterocyclylamines as PI3K inhibitors” (Incyte Corporation, priority 2011, dated 2017), this text covers IC50 for 26 molecules.

The test addresses PI3Kδ (p110δ/p85α) (Homo sapiens (Human), UniProt O00329). Kind of test: PI3Kδ scintillation proximity assay (Example A3). The test is classed as biochemical. The settings on record: 20 μM ATP, 20 μM PIP2, 4 nM PI3Kδ; read-out: PI3Kδ SPA IC50. Put shortly:
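IC50 derived by fitting percent control activity against log inhibitor concentration. Radiolabelled product was measured by scintillation counting on WGA SPA beads after overnight shaking. The kinase reaction used 4 nM p110δ/p85α, 20 μM ATP (with [γ-33P]ATP) and 20 μM PIP2 at pH 6.7 and room temperature, with 0.5% DMSO final.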
For orientation: In a scintillation proximity assay essentially only radioactivity close to the scintillant gives light.

PI3Kδ (p110δ/p85α), sequence (O00329 whole entry): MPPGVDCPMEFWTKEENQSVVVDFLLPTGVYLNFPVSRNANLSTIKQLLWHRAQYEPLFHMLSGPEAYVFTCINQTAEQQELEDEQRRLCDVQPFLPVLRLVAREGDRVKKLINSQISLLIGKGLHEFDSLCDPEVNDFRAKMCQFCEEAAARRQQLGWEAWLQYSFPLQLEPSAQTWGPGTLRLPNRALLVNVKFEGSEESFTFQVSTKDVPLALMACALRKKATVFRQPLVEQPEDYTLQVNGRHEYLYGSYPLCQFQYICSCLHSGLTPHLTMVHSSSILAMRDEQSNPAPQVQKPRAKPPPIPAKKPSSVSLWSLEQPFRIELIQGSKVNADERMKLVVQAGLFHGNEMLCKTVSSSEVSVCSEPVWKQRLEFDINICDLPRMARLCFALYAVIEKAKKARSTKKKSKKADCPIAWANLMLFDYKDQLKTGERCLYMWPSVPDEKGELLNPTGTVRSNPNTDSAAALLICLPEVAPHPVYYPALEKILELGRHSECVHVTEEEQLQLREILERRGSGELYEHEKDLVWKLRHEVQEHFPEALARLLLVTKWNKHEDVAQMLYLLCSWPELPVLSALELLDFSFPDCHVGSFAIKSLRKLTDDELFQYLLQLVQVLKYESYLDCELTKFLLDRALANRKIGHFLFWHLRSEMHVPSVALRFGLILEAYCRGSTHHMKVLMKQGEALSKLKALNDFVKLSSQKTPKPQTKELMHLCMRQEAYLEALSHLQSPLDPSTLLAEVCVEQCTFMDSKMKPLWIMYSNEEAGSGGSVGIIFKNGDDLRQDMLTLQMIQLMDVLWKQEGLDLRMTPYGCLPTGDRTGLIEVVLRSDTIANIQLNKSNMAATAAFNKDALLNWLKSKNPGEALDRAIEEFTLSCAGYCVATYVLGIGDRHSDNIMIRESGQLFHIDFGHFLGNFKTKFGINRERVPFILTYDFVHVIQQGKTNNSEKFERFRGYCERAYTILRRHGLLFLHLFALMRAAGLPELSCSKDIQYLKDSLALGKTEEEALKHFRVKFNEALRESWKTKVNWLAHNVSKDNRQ
PI3Kδ (p110δ/p85α), sequence (P27986 whole entry partner): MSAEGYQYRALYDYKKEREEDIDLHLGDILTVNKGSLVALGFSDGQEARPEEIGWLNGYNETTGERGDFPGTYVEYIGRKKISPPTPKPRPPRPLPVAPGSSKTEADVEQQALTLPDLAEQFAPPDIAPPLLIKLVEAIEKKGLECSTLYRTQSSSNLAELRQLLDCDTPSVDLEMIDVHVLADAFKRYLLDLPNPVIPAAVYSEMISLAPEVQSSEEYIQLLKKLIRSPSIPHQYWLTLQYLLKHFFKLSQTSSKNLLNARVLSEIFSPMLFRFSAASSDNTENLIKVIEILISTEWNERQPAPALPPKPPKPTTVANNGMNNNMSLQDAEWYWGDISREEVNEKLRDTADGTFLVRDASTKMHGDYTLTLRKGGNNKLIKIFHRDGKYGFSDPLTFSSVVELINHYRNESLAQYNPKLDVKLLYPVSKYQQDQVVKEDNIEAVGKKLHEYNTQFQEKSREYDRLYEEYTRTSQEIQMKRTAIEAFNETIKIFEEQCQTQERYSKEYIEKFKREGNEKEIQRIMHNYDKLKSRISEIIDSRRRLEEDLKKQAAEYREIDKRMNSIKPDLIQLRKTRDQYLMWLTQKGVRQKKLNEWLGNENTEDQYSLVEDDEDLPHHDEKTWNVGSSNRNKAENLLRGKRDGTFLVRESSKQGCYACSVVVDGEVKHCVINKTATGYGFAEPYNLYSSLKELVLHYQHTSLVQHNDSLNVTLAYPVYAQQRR

The term IC50 denotes the concentration that inhibits the measured activity by half. Regarding `COc1c(C(C)n2nc(C)c3c(N)ncnc32)cc(Cl)c(C#N)c1C1CN(C(=O)C2CC2)C1` (single isomer, unassigned) [Example 284, 4-[1-(4-Amino-3-methyl-1H-pyrazolo[3,4-d]pyrimidin-1-yl)ethyl]-6-chloro-2-[1-(cyclopropylcarbonyl)azetidin-3-yl]-3-methoxybenzonitrile], the IC50 was ≤ 10 nM.

For the molecule `CCS(=O)(=O)N1CC(c2c(C#N)c(Cl)cc(C(C)n3nc(C)c4c(N)ncnc43)c2OC)C1` (single isomer, unassigned) [Example 286, 4-[1-(4-Amino-3-methyl-1H-pyrazolo[3,4-d]pyrimidin-1-yl)ethyl]-6-chloro-2-[1-(ethylsulfonyl)azetidin-3-yl]-3-methoxybenzonitrile], the IC50 is ≤ 10 nM.

As to `COc1c(C(C)n2nc(C)c3c(N)ncnc32)cc(Cl)c(C#N)c1C1CN(S(=O)(=O)C2CC2)C1` (single isomer, unassigned) [Example 288, 4-[1-(4-Amino-3-methyl-1H-pyrazolo[3,4-d]pyrimidin-1-yl)ethyl]-6-chloro-2-[1-(cyclopropylsulfonyl)azetidin-3-yl]-3-methoxybenzonitrile], the IC50 was ≤ 10 nM.

Regarding `CCOC(=O)N1CC(c2c(C#N)c(Cl)cc(C(C)n3nc(C)c4c(N)ncnc43)c2OC)C1` (single isomer, unassigned) [Example 290, Ethyl 3-{3-[1-(4-amino-3-methyl-1H-pyrazolo[3,4-d]pyrimidin-1-yl)ethyl]-5-chloro-6-cyano-2-methoxyphenyl}azetidine-1-carboxylate], the IC50 is ≤ 10 nM.

For the molecule `COc1c(C(C)n2nc(C)c3c(N)ncnc32)cc(Cl)c(C#N)c1C1CN(C(=O)OC(C)C)C1` (single isomer, unassigned) [Example 291, Isopropyl 3-{3-[1-(4-amino-3-methyl-1H-pyrazolo[3,4-d]pyrimidin-1-yl)ethyl]-5-chloro-6-cyano-2-methoxyphenyl}azetidine-1-carboxylate], the 50% inhibitory concentration (IC50) was ≤ 10 nM.

As to `CCNC(=O)N1CC(c2c(C#N)c(Cl)cc(C(C)n3nc(C)c4c(N)ncnc43)c2OC)C1` (single isomer, unassigned) [Example 295, 3-{3-[1-(4-Amino-3-methyl-1H-pyrazolo[3,4-d]pyrimidin-1-yl)ethyl]-5-chloro-6-cyano-2-methoxyphenyl}-N-ethylazetidine-1-carboxamide], the half-inhibitory concentration (IC50) was ≤ 10 nM.

Turning to `CCN1CC(c2c(Cl)c(Cl)cc(C(C)n3nc(C)c4c(N)ncnc43)c2OC)C1` (single isomer, unassigned) [Example 298, 1-{1-[4,5-Dichloro-3-(1-ethylazetidin-3-yl)-2-methoxyphenyl]ethyl}-3-methyl-1H-pyrazolo[3,4-d]pyrimidin-4-amine], the IC50 was ≤ 10 nM.

For the molecule `COc1c(C(C)n2nc(C)c3c(N)ncnc32)cc(Cl)c(Cl)c1C1CN(C(C)C)C1` (single isomer, unassigned) [Example 299, 1-{1-[4,5-Dichloro-3-(1-isopropylazetidin-3-yl)-2-methoxyphenyl]ethyl}-3-methyl-1H-pyrazolo[3,4-d]pyrimidin-4-amine], the IC50 is ≤ 10 nM.

For the molecule `COc1c(C(C)n2nc(C)c3c(N)ncnc32)cc(Cl)c(Cl)c1C1CN(CCO)C1` (single isomer, unassigned) [Example 300, 2-(3-{3-[1-(4-Amino-3-methyl-1H-pyrazolo[3,4-d]pyrimidin-1-yl)ethyl]-5,6-dichloro-2-methoxyphenyl}azetidin-1-yl)ethano], the IC50 is ≤ 10 nM.

On to `COc1c(C(C)n2nc(C)c3c(N)ncnc32)cc(Cl)c(Cl)c1C1CN(CC(C)(C)O)C1` (single isomer, unassigned) [Example 303, 1-(3-{3-[1-(4-Amino-3-methyl-1H-pyrazolo[3,4-d]pyrimidin-1-yl)ethyl]-5,6-dichloro-2-methoxyphenyl}azetidin-1-yl)-2-methylpropan-2-ol], for which the IC50 was ≤ 10 nM.

Turning to `COc1c(C(C)n2nc(C)c3c(N)ncnc32)cc(Cl)c(Cl)c1C1CN(C2COC2)C1` (single isomer, unassigned) [Example 304, 1-{1-[4,5-Dichloro-2-methoxy-3-(1-oxetan-3-ylazetidin-3-yl)phenyl]ethyl}-3-methyl-1H-pyrazolo[3,4-d]pyrimidin-4-amine], the IC50 was ≤ 10 nM.

On to `COc1c(C(C)n2nc(C)c3c(N)ncnc32)cc(Cl)c(Cl)c1C1CN(CC#N)C1` (single isomer, unassigned) [Example 305, (3-{3-[1-(4-Amino-3-methyl-1H-pyrazolo[3,4-d]pyrimidin-1-yl)ethyl]-5,6-dichloro-2-methoxyphenyl}azetidin-1-yl)acetonitrile], for which the IC50 is ≤ 10 nM.

For the molecule `COc1c(C(C)n2nc(C)c3c(N)ncnc32)cc(Cl)c(Cl)c1C1CN(C(C)=O)C1` (single isomer, unassigned) [Example 306, 1-{1-[3-(1-Acetylazetidin-3-yl)-4,5-dichloro-2-methoxyphenyl]ethyl}-3-methyl-1H-pyrazolo[3,4-d]pyrimidin-4-amine], the IC50 is ≤ 10 nM.

Turning to `CCOc1c(C(C)n2nc(C)c3c(N)ncnc32)cc(Cl)c(C)c1C1CNC(=O)C1` (single isomer, unassigned) [Example 310, 4-{3-[1-(4-amino-3-methyl-1H-pyrazolo[3,4-d]pyrimidin-1-yl)ethyl]-5-chloro-2-ethoxy-6-methylphenyl}pyrrolidin-2-one], the IC50 is ≤ 10 nM.

`CCOc1c(C(C)n2nc(C)c3c(N)ncnc32)cc(Cl)c(C)c1C1CNC(=O)C1` (single isomer, unassigned) [Example 311, 4-{3-[1-(4-amino-3-methyl-1H-pyrazolo[3,4-d]pyrimidin-1-yl)ethyl]-5-chloro-2-ethoxy-6-methylphenyl}pyrrolidin-2-one]: the IC50 is ≤ 10 nM.

Regarding `CCOc1c(C(C)n2nc(C)c3c(N)ncnc32)cc(C)c(C#N)c1C1CN(CC(C)(C)O)C1` (single isomer, unassigned) [Example 321, 4-[1-(4-amino-3-methyl-1H-pyrazolo[3,4-d]pyrimidin-1-yl)ethyl]-3-ethoxy-2-[1-(2-hydroxy-2-methylpropyl)azetidin-3-yl]-6-methylbenzonitrile], the IC50 was ≤ 10 nM.

As for `CCOc1c(C(C)n2nc(C)c3c(N)ncnc32)cc(C)c(C#N)c1C1CN(C(=O)C(C)(C)O)C1` (single isomer, unassigned) [Example 322, 4-[1-(4-amino-3-methyl-1H-pyrazolo[3,4-d]pyrimidin-1-yl)ethyl]-3-ethoxy-2-[1-(2-hydroxy-2-methylpropanoyl)azetidin-3-yl]-6-methylbenzonitrile], the IC50 was ≤ 10 nM.

Regarding `CCOc1c(C(C)n2nc(C)c3c(N)ncnc32)cc(C)c(C#N)c1C1CN(CCO)C1` (single isomer, unassigned) [Example 327, 4-[-1-(4-amino-3-methyl-1H-pyrazolo[3,4-d]pyrimidin-1-yl)ethyl]-3-ethoxy-2-[1-(2-hydroxyethyl)azetidin-3-yl]-6-methylbenzonitrile], the IC50 is ≤ 10 nM.

Turning to `CCOc1c(C(C)n2nc(C)c3c(N)ncnc32)cc(Cl)c(C#N)c1-c1cncc(C#N)c1` (single isomer, unassigned) [Example 330, 5-{3-[1-(4-amino-3-methyl-1H-pyrazolo[3,4-d]pyrimidin-1-yl)ethyl]-5-chloro-6-cyano-2-ethoxyphenyl}nicotinonitrile], the IC50 was ≤ 10 nM.

As to `CCOc1c(C(C)n2nc(C)c3c(N)ncnc32)cc(Cl)c(C#N)c1-c1cncc(C(=O)N(C)C)c1` (single isomer, unassigned) [Example 331, 5-{3-[1-(4-amino-3-methyl-1H-pyrazolo[3,4-d]pyrimidin-1-yl)ethyl]-5-chloro-6-cyano-2-ethoxyphenyl}-N,N-dimethylnicotinamide], the IC50 is ≤ 10 nM.

As to `COc1c(C(C)n2nc(C)c3c(N)ncnc32)cc(Cl)c(C#N)c1-c1cncc(S(C)(=O)=O)c1` (single isomer, unassigned) [Example 332, 4-[1-(4-amino-3-methyl-1H-pyrazolo[3,4-d]pyrimidin-1-yl)ethyl]-6-chloro-3-methoxy-2-[5-(methylsulfonyl)pyridin-3-yl]benzonitrile], the IC50 was ≤ 10 nM.

For `CCOc1c(C(C)n2nc(C)c3c(N)ncnc32)cc(Cl)c(C#N)c1-c1ccnc(C(=O)N(C)C)c1` (single isomer, unassigned) [Example 334, 4-{3-[1-(4-amino-3-methyl-1H-pyrazolo[3,4-d]pyrimidin-1-yl)ethyl]-5-chloro-6-cyano-2-ethoxyphenyl}-N,N-dimethylpyridine-2-carboxamide], the 50% inhibitory concentration (IC50) was ≤ 10 nM.

Take `CCOc1c(C(C)n2nc(C)c3c(N)ncnc32)cc(C)c(C#N)c1-c1cncc(S(C)(=O)=O)c1` (single isomer, unassigned) [Example 335, 4-[1-(4-amino-3-methyl-1H-pyrazolo[3,4-d]pyrimidin-1-yl)ethyl]-3-ethoxy-6-methyl-2-[5-(methylsulfonyl)pyridin-3-yl]benzonitrile]: the IC50 was ≤ 10 nM.

Consider `CCOc1c(C(C)n2nc(C)c3c(N)ncnc32)cc(C)c(C#N)c1-c1ccnc(C(=O)N(C)C)c1` (single isomer, unassigned) [Example 340, 4-{3-[1-(4-amino-3-methyl-1H-pyrazolo[3,4-d]pyrimidin-1-yl)ethyl]-6-cyano-2-ethoxy-5-methylphenyl}-N,N-dimethylpyridine-2-carboxamide], for which the IC50 is ≤ 10 nM.

As for `CCOc1c(C(C)n2nc(C)c3c(N)ncnc32)cc(Cl)c(F)c1C1CNC(=O)C1` (single isomer, unassigned) [Example 345, 4-{3-[1-(4-amino-3-methyl-1H-pyrazolo[3,4-d]pyrimidin-1-yl)ethyl]-5-chloro-2-ethoxy-6-fluorophenyl}pyrrolidin-2-one], the 50% inhibitory concentration (IC50) lay within 50 to 200 nM.

Take `CCOc1c(C(C)n2nc(C)c3c(N)ncnc32)cc(Cl)c(F)c1C1CNC(=O)C1` (single isomer, unassigned) [Example 346, 4-{3-[1-(4-amino-3-methyl-1H-pyrazolo[3,4-d]pyrimidin-1-yl)ethyl]-5-chloro-2-ethoxy-6-fluorophenyl}pyrrolidin-2-one]: the 50% inhibitory concentration (IC50) is ≤ 10 nM.
